Patent US20170216340A1, “A Nucleoside Derivative For Use As A Drug, Particularly For The Treatment Of Chronic Lymphocytic Leukemia” (INSTYTUT BIOLOGII MEDYCZNEJ POLSKIEJ AKADEMII NAUK, priority 2014, published 2017)
Entries after “also recorded” stand apart in the source; their conditions may differ.

How the values were obtained:
[1] = test system: PARP-1, Bax, Bcl-2, Mcl-1; assay: Western blot analysis of apoptosis-related proteins in CLL and PLL cells; format: cell-based, human; conditions: 15 μM; for expression level of Bcl-2 in comparison to vehicle control: PBMC samples from Patient 2, 48 h
Description: The expression of apoptosis-related proteins was assessed in CLL and PLL cells exposed to the tested agents. All examined adenosine derivatives triggered proteolysis of PARP-1 full length protein (116 kDa) to its cleavage product (89 kDa), which is a known marker of apoptosis. Moreover, altered expression of pro-apoptotic (Bax) and anti-apoptotic proteins (Mcl-1, Bcl-2) from Bcl-2 family was also observed in purine derivative-treated leukemic cells. However, there were some individual differences between basal levels of these apoptotic regulators in model cells, as well as the changes in their cellular levels after the agent exposure were diverse. For instance, there were no significant alterations in Bax/Bcl-2 ratio in cell samples obtained from exemplary patient 1 exposed to the novel nucleosides.
Control PBMCs (without the agents), as well as the cells samples exposed to DMSO (vehicle control) and the tested agents were lysed (4° C., 1 h) in a buffer containing 10 mM Tris-HCl (pH 7.5), 300 mM NaCl, 1% Triton X-100, 2 mM MgCl2, 0.1 M DTT, and protease inhibitors as described previously (A., Kobylinska, J., Bednarek, J. Z., Blonski, M., Hanausek, Z., Walaszek, H., Piekarski, T., Robak, Z. M., Kilianska. 2006. In vitro sensitivity of B-cell chronic lymphocytic leukemia to cladribine and its combinations with mafosfamide and/or mitoxantrone, Oncol. Rep., 16, 1389-1395). Protein content was estimated according to Lowry method (O. H., Lowry, N. J., Rosebrough, A. L., Farr, R. J., Randall. 1951. Protein measurement with the Folin phenol reagent. J. Biol. Chem., 193, 265-275) and the cell lysates were prepared for subsequent Western blotting analysis. Protein samples (60 μg/lane) were separated by SDS polyacrylamide gel electrophoresis (SDS-PAGE) on 8.0 or 12.5% slab gels and electrotransfered onto Immobilon P (H., Towbin, T., Staechlin, J., Gordon, 1979, Electrophoretic transfer of protein from polyacrylamide gels to nitrocellulose sheets: procedure and some applications. Proc. Natl. Acad. Sci. USA, 76, 4350-4354). Membrane staining with 0.5% Ponceau S solution was done to confirm equal protein loading and completeness of the transfer. The membranes were saturated in 5.0% skim milk in TBS (10 mM Tris-HC1, pH 7.5, 150 mM NaC1) for 1 h at ambient temperature, and then incubated overnight with antibodies specific to Mcl -1 (1:1000), Bcl-2 (1:1000), Bax (1:1000), PARP-1 (1:1000), all from Santa Cruz Biotechnology Inc. Antigen recognition was performed with appropriate secondary antibodies conjugated with horseradish peroxidase. The antigen-antibodies complexes were detected with Novex HRP Chromogenic substrate (TMB) from Invitrogen or, alternatively, by chemiluminescence method (see results in FIG. 3).

normal PBMCs = assay: Cytotoxicity in normal PBMCs (propidium iodide; Membrane Permeability/Dead Cell Apoptosis Kit); format: cell-based, human; conditions: normal PBMCs from healthy donors, 24 and 48 h
Description: (§1) During the first stage, the cytotoxicity analysis of compounds according to the present invention introduced into the culture medium in increasing concentrations (from 0 μM to 60 μM) against leukemic and healthy peripheral blood mononuclear cells (PBMCs). The goal of this stage was to select the optimal concentrations which would be useful for the further comparative analysis of novel compound with conventional chemotherapeutics, i.e. cladribine and fludarabine, in terms of their antileukemic efficacy. The cytotoxicity of compounds was evaluated in PBMCs isolated from the blood of 5 patients with CLL, 1 with PLL and 5 healthy donors after 24 and 48 h. of incubation. Cell survival was evaluated cytometrically using propidium iodide staining using the Membrane Permeability/Dead Cell Apoptosis assay (propidium iodide+YO-PRO). […] FIG. 1a represents the survival of healthy cells treated with compounds according to the present invention at increasing concentrationsand evaluated using the Membrane Permeability/Dead Cell Apoptosis assay.
(§2) PBMC cells were isolated from peripheral blood using centrifugation via a Histopaque gradient according to the manufacturer's instructions. […] The cytotoxicity was assessed cytometrically after 24 and 48 h incubation.
(§3) Firstly, it was analyzed by propidium iodide staining. […]

PLL cells = assay: Viability and apoptosis induction in PLL PBMCs (Membrane Permeability/Dead Cell Apoptosis Kit); format: cell-based, human; conditions: 15 μM, 1 case of PLL, very preliminary data
Description: The 15 μM concentration of the used agents, as safe for normal PBMCs, was selected for further analyses with regard to their apoptosis-inducing potential. The viability and apoptosis induction were examined in cell samples obtained from peripheral blood of 6 patients with leukemia (5 cases of CLL and 1 case of PLL). […] It is worth noting that the agents differed in their apoptosis inducing potential in PLL cells.
Firstly, it was analyzed by propidium iodide staining. Then, Membrane Permeability/Dead Cell Apoptosis Kit (Molecular Probes, Invitrogen™) was used to examine the contribution of apoptosis to cell death induction after exposure to the used agents. The analyses were performed on BD LSR II flow cytometry using FACSDiva Version 6.1.2 software. Ten thousand events were examined for each analysis. The distinction between living (YO-PRO-negative/propidium iodide-negative), early apoptotic (YO-PRO-positive/propidium iodide-negative) and dead (YO-PRO-positive/propiodium iodide-positive) cells was based on the differences in their permeability for fluorescent dyes. The results are shown as the percent of viable and early apoptotic cells in gated PBM cell population, respectively.
For further analyses the concentration of 15 μM of all tested agents was chosen. […]

caspase 3 = assay: Caspase-3 activation assay (PE Active Caspase-3 Apoptosis Kit, flow cytometry); format: cell-based, human; design: number of caspase-3-positive cells: dose or concentration left out as unconfirmed; conditions: PLL cells; for number of cells with active form of caspase 3: 48 h drug exposure, 15 μM
Description: Caspase 3 is a main effector caspase which is involved in apoptosis process realization (Miura M., Zhu H., Otello R., Hartwieg E.A., Yuan J. 1993. Induction of apoptosis in fibroblasts by IL-1 beta-converting enzyme, a mammalian homolog of the C. elegans cell death gene ced-3, Cell, 75, 653-660). […] Our analysis, conducted after 48 h drug exposure, confirmed that in PLL cells a high antileukemic potential of adenosine modified at C-2 position with boron cluster is related to apoptosis induction. The number of cells with active form of the enzyme raised after the exposure to compound 3 from 9.4% and 10.6% in control and vehicle control (DMSO), respectively, to 28.5%. Similar effect (20,1%) was observed after the incubation of PLL cells with cladribine at concentration of 15 μM which recursively exceeds its level in serum of patients during antileukemic therapy. […] Of note, compound 5 affected PLL cells weaker than compound 3 which was confirmed by caspase 3 activation in 16.1% of leukemic cells.
The percent of leukemic PBMCs with active form of caspase-3 was measured cytometrically by PE Active Caspase-3 Apoptosis Kit, BD Pharmingen according to manufacturer's protocol. The analyses were conducted after 48 h incubation with/without (control) the agents or DMSO (vehicle control). BD LSR II flow cytometer was used and the analyses were performed using FACSDiva Version 6.1.2 software (see results in FIG. 2).

CLL cells = assay: Cytotoxicity in leukemic PBMCs from CLL patients; format: cell-based; conditions: 24 and 48 h
Description: as §1, §2, §3

Molecule	expression level of Bcl-2 in comparison to vehicle control [1]	cytotoxicity against normal PBMCs (normal PBMCs)	anti-leukemic (apoptosis inducing) potential against PLL cells (PLL cells)	number of cells with active form of caspase 3 (caspase 3)	cytotoxicity / anti-leukemic potential against CLL cells (CLL cells)	Bax expression level ([1]; cells from patient 1, 48 h)	Bcl-2 protein level ([1]; cells from patient 1, 48 h)	number of caspase-3-positive cells (caspase 3; 48 h)
2-ethynyl-(1,12-dicarba-closo-dodecaboran-2-yl)adenosine [compound 3]	clear decrease	less cytotoxic against normal PBMCs; also recorded: lower than fludarabine	very potent against PLL cells; also recorded: even higher than that of cladribine and fludarabine	28.5%	smaller anti-leukemic potential against CLL cells than compound 5			
8-ethynyl-(1,12-dicarba-closo-dodecaboran-2-yl-2′-deoxyadenosine [compound 5]	clear decrease			16.1%	more cytotoxic in comparison to compound 3			
Nc1nc(F)nc2c1ncn2[C@@H]1O[C@H](CO)[C@@H](O)[C@@H]1O [fludarabine]				11.8%				
Nc1nc(Cl)nc2c1ncn2[C@H]1C[C@H](O)[C@@H](CO)O1 [cladribine, reference compound]				20,1%		essential increase	diminution	11.8%
